Reference: patent US20120053211A1, “TREATMENT OF PANCREATIC CANCER” (ARDEA BIOSCIENCES, INC., priority 2009, published 2012)
Where “and” joins values, the source holds several entries; their conditions need not be identical. Equal values may be shown once.

Tested on: Bx-PC3-e242 Xenograft
Assay: Bx-PC3-e242 Xenograft Study
Format: in vivo, female (nu/nu) mice
Design: key to Mean BW Nadir: — indicates no decrease in mean body weight was observed
Conditions: for % TGI: D15, compared to Group 1; for % TGD: [(T − C)/C] × 100; for MTV (n) D54: day of TGD analysis, excludes animals reaching endpoint; for MTV (n) D15: day of TGI analysis, includes animals at endpoint; for T − C: difference of median TTE versus control group (Group 1); for Mean TTE / Median TTE: endpoint 1500 mm^3; for Individual TTE values: individual animals 1-9, endpoint 1500 mm^3, study duration 54 days; for Mean BW Nadir: lowest group mean body weight as % change from Day 1; for No. of NTR: non-treatment-related death; for No. of PR: partial regression, 9 animals
Method: In vivo activity of compound B: Bx-PC3-e242 Xenograft Study Bx-PC3-e242 cells were injected into 11-week-old female (nu/nu) mice. Tumors were allowed to reach 115.5-116.7 mm^3 (group mean tumor range); 63-196 mm^3 (Individual Tumor Range) in size (23 days) and mice were randomized into 6 groups of 9 animals (body weight range 18.0-25.2 g). Mice were treated by according to the chart below:
Tumors were measured with a caliper and tumor volumes calculated using the following formula:
where w=width and l=length in mm of a tumor. Tumor weight is estimated with the assumption that 1 mg is equivalent to 1 mm^3 of tumor volume.
Each animal was euthanized when the tumor reached endpoint size or at the end of the study, whichever comes first. The time to endpoint (TTE) for each mouse is calculated according to the following equation
The study endpoint was 1500 mm^3, with a study duration of 54 days.
Treatment may cause partial regression (PR) or complete regression (CR) of the tumor in an animal. In a PR response, the tumor volume is 50% or less of its Day 1 volume for three consecutive measurements during the course of the study.
Treatment outcome is evaluated by tumor growth delay (TGD), defined as the increase in the median time to endpoint (TTE) in a treatment group compared to the control group:
Response to treatment was also evaluated for tumor growth inhibition (TGI), defined as the difference between the median tumor volumes (MTVs) of treated and control mice.
Animals were weighed daily for the first five days of the study and then twice weekly. The mice are observed frequently for overt signs of any adverse, treatment-related side effects, and clinical signs of toxicity were recorded when observed.

[1] = Group 3: Cmpd B 25 mg/kg po qd × 14
[2] = Group 4: Cmpd B 6.25 mg/kg po bid × 14 first day 1 dose
[3] = Group 6: Cmpd B 12.5 mg/kg po, then 6.25 mg/kg po bid × 11 first day 1 dose (start on day 4)

## Cc1c(Nc2ccc(I)cc2F)c(NS(=O)(=O)C2CC2)cn(C)c1=O [Compound B, N-(4-(2-fluoro-4-iodophenylamino)-1,5-dimethyl-6-oxo-1,6-dihydropyridin-3-yl)cyclopropanesulfonamide]
D1, Group 3: Cmpd B 25 mg/kg po qd × 14
  Weekly Median Tumor Volume (number of animals in parentheses): 108 (9) mm^3
D1, Group 4: Cmpd B 6.25 mg/kg po bid × 14 first day 1 dose
  Weekly Median Tumor Volume (number of animals in parentheses): 108 (9) mm^3
D1, Group 5: Cmpd B 9 mg/kg po
  Weekly Median Tumor Volume (number of animals in parentheses): 108 (9) mm^3
D1, Group 6: Cmpd B 12.5 mg/kg po, then 6.25 mg/kg po bid × 11 first day 1 dose (start on day 4)
  Weekly Median Tumor Volume (number of animals in parentheses): 75 (9) mm^3
D5, Group 3: Cmpd B 25 mg/kg po qd × 14
  Weekly Median Tumor Volume (number of animals in parentheses): 75 (9) mm^3
D5, Group 4: Cmpd B 6.25 mg/kg po bid × 14 first day 1 dose
  Weekly Median Tumor Volume (number of animals in parentheses): 75 (9) mm^3
D5, Group 5: Cmpd B 9 mg/kg po
  Weekly Median Tumor Volume (number of animals in parentheses): 63 (9) mm^3
D5, Group 6: Cmpd B 12.5 mg/kg po, then 6.25 mg/kg po bid × 11 first day 1 dose (start on day 4)
  Weekly Median Tumor Volume (number of animals in parentheses): 75 (9) mm^3
D10, Group 3: Cmpd B 25 mg/kg po qd × 14
  Weekly Median Tumor Volume (number of animals in parentheses): 196 (9) mm^3
D10, Group 4: Cmpd B 6.25 mg/kg po bid × 14 first day 1 dose
  Weekly Median Tumor Volume (number of animals in parentheses): 196 (9) mm^3
D10, Group 5: Cmpd B 9 mg/kg po
  Weekly Median Tumor Volume (number of animals in parentheses): 172 (9) mm^3
D10, Group 6: Cmpd B 12.5 mg/kg po, then 6.25 mg/kg po bid × 11 first day 1 dose (start on day 4)
  Weekly Median Tumor Volume (number of animals in parentheses): 259 (9) mm^3
[1]
  % TGI: 82%
  % TGD: 62%
  MTV (n) D54: 1470 (1) mm^3
  MTV (n) D15: 196 (9) mm^3
  T − C: 12.1 days
  Mean TTE: 35.4 days
  Median TTE: 31.6 days
  Individual TTE values: 23.4 days and 28.3 days and 54.0 days and 50.1 days and 26.5 days and 31.6 days and 38.2 days and 40.2 days and 26.8 days
  Mean BW Nadir: —
  No. of NTR: 0
  No. of PR: 0
[2]
  % TGI: 89%
  % TGD: 91%
  MTV (n) D54: 486 (1) mm^3
  MTV (n) D15: 126 (9) mm^3
  T − C: 17.8 days
  Mean TTE: 40.7 days
  Median TTE: 37.3 days
  Mean BW Nadir: —
  No. of NTR: 1
  No. of PR: 0
Group 5: Cmpd B 9 mg/kg po
  % TGI: 89%
  % TGD: 94%
  MTV (n) D15: 126 (9) mm^3
  T − C: 18.3 days
  Mean TTE: 37.8 days
  Median TTE: 37.8 days
  Individual TTE values: 31.8 days and 42.8 days (2×) and 33.8 days and 41.7 days and 50.3 days and 30.5 days and 28.2 days and 37.8 days
  Mean BW Nadir: —
  No. of NTR: 0
  No. of PR: 0
[3]
  % TGI: 84%
  % TGD: 69%
  MTV (n) D15: 172 (9) mm^3
  T − C: 13.4 days
  Mean TTE: 34.9 days
  Median TTE: 32.9 days
  Individual TTE values: 32.9 days and 45.6 days and 35.7 days and 29.7 days and 33.3 days and 41.0 days and 31.1 days and 31.8 days and 32.8 days
  Mean BW Nadir: —
  No. of NTR: 0
  No. of PR: 0
D15, Group 3: Cmpd B 25 mg/kg po qd × 14
  Weekly Median Tumor Volume (number of animals in parentheses): 196 (9) mm^3
D15, Group 4: Cmpd B 6.25 mg/kg po bid × 14 first day 1 dose
  Weekly Median Tumor Volume (number of animals in parentheses): 126 (9) mm^3
D15, Group 5: Cmpd B 9 mg/kg po
  Weekly Median Tumor Volume (number of animals in parentheses): 126 (9) mm^3
D15, Group 6: Cmpd B 12.5 mg/kg po, then 6.25 mg/kg po bid × 11 first day 1 dose (start on day 4)
  Weekly Median Tumor Volume (number of animals in parentheses): 172 (9) mm^3
D22, Group 3: Cmpd B 25 mg/kg po qd × 14
  Weekly Median Tumor Volume (number of animals in parentheses): 446 (9) mm^3
D22, Group 4: Cmpd B 6.25 mg/kg po bid × 14 first day 1 dose
  Weekly Median Tumor Volume (number of animals in parentheses): 288 (9) mm^3
D22, Group 5: Cmpd B 9 mg/kg po
  Weekly Median Tumor Volume (number of animals in parentheses): 288 (9) mm^3
D22, Group 6: Cmpd B 12.5 mg/kg po, then 6.25 mg/kg po bid × 11 first day 1 dose (start on day 4)
  Weekly Median Tumor Volume (number of animals in parentheses): 550 (9) mm^3
D29, Group 3: Cmpd B 25 mg/kg po qd × 14
  Weekly Median Tumor Volume (number of animals in parentheses): 864 (5) mm^3
D29, Group 4: Cmpd B 6.25 mg/kg po bid × 14 first day 1 dose
  Weekly Median Tumor Volume (number of animals in parentheses): 509 (8) mm^3
D29, Group 5: Cmpd B 9 mg/kg po
  Weekly Median Tumor Volume (number of animals in parentheses): 566 (8) mm^3
D29, Group 6: Cmpd B 12.5 mg/kg po, then 6.25 mg/kg po bid × 11 first day 1 dose (start on day 4)
  Weekly Median Tumor Volume (number of animals in parentheses): 1008 (9) mm^3
D36, Group 3: Cmpd B 25 mg/kg po qd × 14
  Weekly Median Tumor Volume (number of animals in parentheses): 867 (4) mm^3
D36, Group 4: Cmpd B 6.25 mg/kg po bid × 14 first day 1 dose
  Weekly Median Tumor Volume (number of animals in parentheses): 600 (6) mm^3
D36, Group 5: Cmpd B 9 mg/kg po
  Weekly Median Tumor Volume (number of animals in parentheses): 600 (5) mm^3
D36, Group 6: Cmpd B 12.5 mg/kg po, then 6.25 mg/kg po bid × 11 first day 1 dose (start on day 4)
  Weekly Median Tumor Volume (number of animals in parentheses): 900 (2) mm^3
D43, Group 3: Cmpd B 25 mg/kg po qd × 14
  Weekly Median Tumor Volume (number of animals in parentheses): 1015 (2) mm^3
D43, Group 4: Cmpd B 6.25 mg/kg po bid × 14 first day 1 dose
  Weekly Median Tumor Volume (number of animals in parentheses): 1268 (3) mm^3
D43, Group 5: Cmpd B 9 mg/kg po
  Weekly Median Tumor Volume (number of animals in parentheses): 1008 (1) mm^3
D43, Group 6: Cmpd B 12.5 mg/kg po, then 6.25 mg/kg po bid × 11 first day 1 dose (start on day 4)
  Weekly Median Tumor Volume (number of animals in parentheses): 1470 (1) mm^3
D50, Group 3: Cmpd B 25 mg/kg po qd × 14
  Weekly Median Tumor Volume (number of animals in parentheses): 1327 (2) mm^3
D50, Group 4: Cmpd B 6.25 mg/kg po bid × 14 first day 1 dose
  Weekly Median Tumor Volume (number of animals in parentheses): 976 (2) mm^3
D50, Group 5: Cmpd B 9 mg/kg po
  Weekly Median Tumor Volume (number of animals in parentheses): 1470 (1) mm^3
* = non-treatment-related death, Group 4: Cmpd B 6.25 mg/kg po bid × 14 first day 1 dose
  Individual TTE values: 54.0 days and 51.4 days and 50.0 days and 35.1 days and 36.9 days and *40.0 days and 29.0 days and 37.7 days and 31.5 days
N = 1, Group 5: Cmpd B 9 mg/kg po
  Mean TV(n): 1913 mm^3
N = 2, Group 3: Cmpd B 25 mg/kg po qd × 14
  Mean TV(n): 1635 mm^3
N = 2, Group 4: Cmpd B 6.25 mg/kg po bid × 14 first day 1 dose
  Mean TV(n): 1076 mm^3
